Test results taken from US9181193B2, “Indenoquinolone compound, preparation method and use thereof” (Second Military Medical University, PLA, priority 2010, dated 2015).
Converted amounts (≈) assume the structure as drawn.

Columns and labels:
[1] = test system: A549 (human lung cancer cells); assay: MTT in vitro anti-tumor activity test, A549; assay type: cell-based
[2] = test system: Colo205 (human colon cancer cells); assay: MTT in vitro anti-tumor activity test, Colo205; assay type: cell-based
[3] = test system: MDA-MB-435 (human breast cancer cells); assay: MTT in vitro anti-tumor activity test, MDA-MB-435; assay type: cell-based
[4] = test system: HepG2 (human hepatoma cells); assay: MTT in vitro anti-tumor activity test, HepG2; assay type: cell-based
[5] = test system: human lung cancer cell line A549; assay: Anti-tumor activity test in vivo, nude mouse model of A549; settings: nude mouse model of A549, dose of 1-200 mg/kg weight
Description: The activities of some compounds in vivo in the nude mouse model of human lung cancer cell line A549 were detected by using literature methods (WEI Hong. Medical Experiments Zoology. 2nd edition. Chengdu: Sichuan Science and Technology Press, 2001: 595-596).

[6] = A549 human lung cancer cells, MTT, 72 h
[7] = Colo205 human colon cancer cells, MTT, 72 h
[8] = MDA-MB-435, 100 μg/mL, MTT, 72 h
[9] = MDA-MB-435 human breast cancer cells, MTT, 72 h
[10] = HepG2 human hepatoma cells, MTT, 72 h
[11] = MTT assay, 72 h incubation, A549 cells
[12] = inhibition at 100 μg/mL, MTT assay, 72 h, A549 cells
[13] = MTT assay, 72 h incubation, Colo205 cells
[14] = inhibition at 100 μg/mL, MTT assay, 72 h, Colo205 cells
[15] = MTT assay, 72 h incubation, MDA-MB-435 cells
[16] = inhibition at 100 μg/mL, MTT assay, 72 h, MDA-MB-435 cells
[17] = MTT assay, 72 h incubation, HepG2 cells
[18] = inhibition at 100 μg/mL, MTT assay, 72 h, HepG2 cells

| SMILES | A549 IC50 [1, 11] | A549 100 μg/mL IC % [1, 12] | Colo205 IC50 [2, 13] | Colo205 100 μg/mL IC % [2, 14] | MDA-MB-435 IC50 [3, 15] | MDA-MB-435 100 μg/mL IC % [3, 16] | HepG2 IC50 [4, 17] | HepG2 100 μg/mL IC % [4, 18] | other results |
| --- | --- | --- | --- | --- | --- | --- | --- | --- | --- |
| COc1ccc2c(c1)C(=O)c1c-2c(OCCCN(C)C)nc2ccccc12 [Compound 6] |  |  |  |  |  |  |  |  | A549 100 μg/mL IC % ([1]; A549, 100 μg/mL, MTT, 72 h): 100%; A549 IC50 [1, 6]: 1.14 µg/mL; Colo205 100 μg/mL IC % ([2]; Colo205, 100 μg/mL, MTT, 72 h): 100%; Colo205 IC50 [2, 7]: 0.719 µg/mL; MDA-MB-435 100 μg/mL IC % [3, 8]: 100%; MDA-MB-435 IC50 [3, 9]: 3.64 µg/mL; HepG2 100 μg/mL IC % ([4]; HepG2, 100 μg/mL, MTT, 72 h): 98.33%; HepG2 IC50 [4, 10]: 2.17 µg/mL; anti-tumor activity in vivo [5]: good anti-tumor activity in vivo |
| CCN(CC)CCOc1nc2ccc(OC)cc2c2c1-c1ccc(OC)cc1C2=O [Compound 14] |  |  |  |  |  |  |  |  | A549 100 μg/mL IC % ([1]; A549, 100 μg/mL, MTT, 72 h): 100%; A549 IC50 [1, 6]: 6.11 µg/mL; Colo205 100 μg/mL IC % ([2]; Colo205, 100 μg/mL, MTT, 72 h): 97.47%; Colo205 IC50 [2, 7]: 0.580 µg/mL; MDA-MB-435 100 μg/mL IC % [3, 8]: 99.95%; MDA-MB-435 IC50 [3, 9]: 1.29 µg/mL; HepG2 100 μg/mL IC % ([4]; HepG2, 100 μg/mL, MTT, 72 h): 100%; HepG2 IC50 [4, 10]: 0.552 µg/mL; anti-tumor activity in vivo [5]: good anti-tumor activity in vivo |
| COc1ccc2c(c1)C(=O)c1c-2c(OCCN(C)C)nc2cc(OC)c(OC)cc12 [Compound 20] |  |  |  |  |  |  |  |  | A549 100 μg/mL IC % ([1]; A549, 100 μg/mL, MTT, 72 h): 100%; A549 IC50 [1, 6]: 13.78 µg/mL; Colo205 100 μg/mL IC % ([2]; Colo205, 100 μg/mL, MTT, 72 h): 93.79%; Colo205 IC50 [2, 7]: 0.606 µg/mL; MDA-MB-435 100 μg/mL IC % [3, 8]: 99.28%; MDA-MB-435 IC50 [3, 9]: 0.99 µg/mL; HepG2 100 μg/mL IC % ([4]; HepG2, 100 μg/mL, MTT, 72 h): 99.17%; HepG2 IC50 [4, 10]: 1.28 µg/mL; anti-tumor activity in vivo [5]: good anti-tumor activity in vivo |
| COc1ccc2c(c1)C(=O)c1c-2c(=O)n(CCN2CCCC2)c2ccccc12 [Compound 32] | 8.58 µg/mL | 92.32% | 7.45 µg/mL | 92.85% | 10.73 µg/mL | 96.48% | 6.92 µg/mL | 70.03% |  |
| COc1ccc2c(c1)C(=O)c1c-2c(=O)n(CCN2CCOCC2)c2ccccc12 [Compound 33] | >100 µg/mL | 40.55% | >100 µg/mL | 29.31% | >100 µg/mL | 27.19% | >100 µg/mL | 4.57% |  |
| COc1ccc2c(c1)C(=O)c1c-2c(=O)n(CCCN(C)C)c2ccccc12 [Compound 34] | 6.58 µg/mL | 100% | 6.82 µg/mL | 99.54% | 19.78 µg/mL | 100% | ≈100 μg/mL | 49.68% |  |
| CN(C)CCn1c(=O)c2c(c3ccccc31)C(=O)c1cc(Cl)ccc1-2 [Compound 35] | 19.04 µg/mL | 72.15% | 3.89 µg/mL | 100% | 3.88 µg/mL | 100% | 20.09 µg/mL | 100% |  |
| CCN(CC)CCn1c(=O)c2c(c3ccccc31)C(=O)c1cc(Cl)ccc1-2 [Compound 36] | 78.22 µg/mL | 61.01% | 28.58 µg/mL | 79.84% | 28.86 µg/mL | 83.69% | 61.69 µg/mL | 59.74% |  |
| O=C1c2cc(Cl)ccc2-c2c1c1ccccc1n(CCN1CCCC1)c2=O [Compound 37] | 58.58 µg/mL | 61.64% | 36.76 µg/mL | 69.37% | 41.01 µg/mL | 70.26% | >100 µg/mL | 24.95% |  |
| O=C1c2cc(Cl)ccc2-c2c1c1ccccc1n(CCn1ccnc1)c2=O [Compound 38] | 13.16 µg/mL | 100% | 18.77 µg/mL | 95.16% | 9.37 µg/mL | 100% | 22.97 µg/mL | 88.62% |  |
| O=C1c2cc(Cl)ccc2-c2c1c1ccccc1n(CCN1CCCCC1)c2=O [Compound 39] | >100 µg/mL | 47.81% | >100 µg/mL | 13.12% | >100 µg/mL | 14.88% | >100 µg/mL | 22.39% |  |
| CN(C)CCCn1c(=O)c2c(c3ccccc31)C(=O)c1cc(Cl)ccc1-2 [Compound 40] | 3.25 µg/mL | 86.70% | 3.16 µg/mL | 100% | 1.52 µg/mL | 100% | 11.51 µg/mL | 100% |  |
| COc1ccc2c(c1)C(=O)c1c-2c(=O)n(CCN(C)C)c2ccc(OC)cc12 [Compound 41] | ≈100 μg/mL | 49.27% | 0.632 µg/mL | 83.62% | 0.703 µg/mL | 77.77% | 3.36 µg/mL | 85.01% |  |
| COc1ccc2c(c1)-c1c(c3cc(OC)ccc3n(CCN(C)C)c1=O)C2=O [Compound 42] | 8.03 µg/mL | 87.75% | 1.27 µg/mL | 100% | 3.12 µg/mL | 100% | 3.77 µg/mL | 100% |  |
| COc1ccc2c(c1)c1c(c(=O)n2CCn2ccnc2)-c2ccc(Br)cc2C1=O [Compound 43] | >100 µg/mL | 4.26% | 34.21 µg/mL | 87.42% | 83.60 µg/mL | 53.07% | >100 µg/mL | 9.73% |  |
| COc1ccc2c(c1)C(=O)c1c-2c(=O)n(CCN2CCCC2)c2cc(OC)c(OC)cc12 [Compound 44] | 1.42 µg/mL | 94.74% | 0.346 µg/mL | 92.66% | 0.014 µg/mL | 78.20% | 1.93 µg/mL | 84.59% |  |
| COc1ccc2c(c1)C(=O)c1c-2c(=O)n(CCN2CCOCC2)c2cc(OC)c(OC)cc12 [Compound 45] | 37.85 µg/mL | 62.84% | 16.76 µg/mL | 66.89% | 7.86 µg/mL | 72.95% | 6.27 µg/mL | 84.31% |  |
| COc1cc2c3c(c(=O)n(CCN(C)C)c2cc1OC)-c1ccc(Cl)cc1C3=O [Compound 47] | 10.60 µg/mL | 87.20% | 1.66 µg/mL | 88.74% | 5.30 µg/mL | 100% | 8.33 µg/mL | 64.50% |  |
| COc1cc2c3c(c(=O)n(CCn4ccnc4)c2cc1OC)-c1ccc(Cl)cc1C3=O [Compound 48] | 23.76 µg/mL | 79.61% | 11.75 µg/mL | 89.59% | 12.36 µg/mL | 100% | 60.46 µg/mL | 62.67% |  |
| COc1cc2c3c(c(=O)n(CCN4CCOCC4)c2cc1OC)-c1ccc(Cl)cc1C3=O [Compound 49] | >100 µg/mL | 28.48% | 69.03 µg/mL | 50.06% | >100 µg/mL | 48.01% | 21.05 µg/mL | 59.34% |  |
| COc1cc2c3c(c(=O)n(CCCN(C)C)c2cc1OC)-c1ccc(Cl)cc1C3=O [Compound 50] | 3.59 µg/mL | 85.91% | 15.89 µg/mL | 76.93% | 1.12 µg/mL | 89.80% | 3.71 µg/mL | 36.98% |  |
| CC[C@@]1(O)C(=O)OCc2c1cc1n(c2=O)Cc2cc3cc(O)ccc3nc2-1 [HCPT, 10-hydroxycamptothecin, reference compound] |  | 84.68% |  | 88.14% |  | 96.71% |  | 100% | A549 100 μg/mL IC % ([1]; A549, 100 μg/mL, MTT, 72 h): 84.68%; IC50 ([1]; Homo sapiens, A549, 72 h, read-out: A549 IC50): 0.00364 µg/mL (≈ 0.00999 µM); Colo205 100 μg/mL IC % ([2]; Colo205, 100 μg/mL, MTT, 72 h): 88.14%; IC50 ([2]; Homo sapiens, COLO 205, 72 h, read-out: Colo205 IC50): 0.0049 µg/mL (≈ 0.0134 µM); IC50 ([3]; Homo sapiens, MDA-MB-435, 72 h, read-out: MDA-MB-435 IC50): 0.00127 µg/mL (≈ 0.00349 µM); MDA-MB-435 100 μg/mL IC % [3, 8]: 96.71%; HepG2 100 μg/mL IC % ([4]; HepG2, 100 μg/mL, MTT, 72 h): 100%; IC50 ([4]; Homo sapiens, HepG2, 72 h, read-out: HepG2 IC50): 0.147 µg/mL (≈ 0.403 µM) |
